Earlier results as cited in US20110091549A1, “Modulating Drug Release Rate By Controlling The Kinetics Of The pH Transition In Hydrogels” (Confluent Surgical, Inc., priority 2009, published 2011).
Like-named read-outs stand apart in the source and are kept apart here.

Legend:
[1] = free base form compared with the salt form
[2] = drugs having a pKa of from about 7.4 to about 8.5

| SMILES | pKa [2] | further results |
| --- | --- | --- |
| COc1cccc2c1C(=O)c1c(O)c3c(c(O)c1C2=O)C[C@@](O)(C(=O)CO)C[C@@H]3O[C@H]1C[C@H](N)[C@H](O)[C@H](C)O1 [Doxorubicin] |  | pKa: 8.2 |
| O=c1[nH]c(=O)n([C@H]2C[C@H](O)[C@@H](CO)O2)cc1Br [Broxuridine] | 7.85 |  |
| CCCCN1CCCCC1C(=O)Nc1c(C)cccc1C (stereo not drawn) [Bupivacaine, bupivacaine] |  | pKa (transition of the salt form into free base form): about 8.1; aqueous solubility [1]: lower aqueous solubility |

Second part, led by results:

| pKa [2] | SMILES | further results |
| --- | --- | --- |
| 7.8 | CN1CCN(C(c2ccccc2)c2ccc(Cl)cc2)CC1 (stereo not drawn) [Chlorcyclizine] |  |
| 7.7 | CCCN(CC)C(CC)C(=O)Nc1c(C)cccc1C (stereo not drawn) [Etidocaine] |  |
